According to the supplement of paper PMC5908809:

How the values were obtained:
[1] = system: normal NK cells expanded with K562-aAPC; test: drug sensitivity score (DSS) (DSS units); higher = more sensitive; extreme values may be limits of the assay; conditions: 72 h; IL-2 2.5 ng/mL
Procedure: (§1)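 Drug sensitivity and resistance testing on K562-aAPC-expanded normal NK cells: 5 concentrations (10-fold steps over a 10,000-fold range), 72 h at 37 °C, viability by CellTiter-Glo normalised to DMSO and benzethonium chloride controls; DSS from the fitted curve.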

[2] = system: normal NK cells expanded with K562-aAPC; test: percent inhibition of viability; higher = more inhibition; conditions: 72 h, IL-2 2.5 ng/mL
Procedure: as §1

[3] = system: normal primary NK cells, pool 1 (3 donors), resting (IL-2 0 ng/mL); test: as above; conditions: 72 h
[4] = system: normal primary NK cells, pool 2 (3 donors) (IL-2 2.5 ng/mL); test: as above; conditions: 72 h
KAI3 (IL-2 2.5 ng/mL) [5] = test: as above; conditions: 72 h
KHYG-1 (IL-2 2.5 ng/mL) [6] = test: as above; conditions: 72 h
NKL (IL-2 2.5 ng/mL) [7] = test: as above; conditions: 72 h
YT (IL-2 2.5 ng/mL) [8] = test: as above; conditions: 72 h
IMC-1 (IL-2 20 ng/mL) [9] = test: as above; conditions: 72 h
DERL-7 (IL-2 2.5 ng/mL) [10] = test: as above; conditions: 72 h
NK-92 (IL-2 2.5 ng/mL) [11] = test: as above; conditions: 72 h
[12] = system: normal primary NK cells, pool 3 (3 donors) (IL-2 2.5 ng/mL); test: as above; conditions: 72 h
NK-YS (IL-2 2.5 ng/mL) [13] = test: as above; conditions: 72 h
[14] = system: normal primary NK cells, pool 1 (3 donors) (IL-2 2.5 ng/mL); test: as above; conditions: 72 h
SNK-6 (IL-2 2.5 ng/mL) [15] = test: as above; conditions: 72 h
[16] = system: normal primary NK cells, pool 1 (3 donors), resting (IL-2 0 ng/mL); test: drug sensitivity score (DSS) (DSS units); higher = more sensitive; extreme values may be limits of the assay; conditions: 72 h
[17] = system: normal primary NK cells, pool 2 (3 donors) (IL-2 2.5 ng/mL); test: as above; conditions: 72 h
KAI3 (IL-2 2.5 ng/mL) [18] = test: as above; conditions: 72 h
KHYG-1 (IL-2 2.5 ng/mL) [19] = test: as above; conditions: 72 h
NKL (IL-2 2.5 ng/mL) [20] = test: as above; conditions: 72 h
YT (IL-2 2.5 ng/mL) [21] = test: as above; conditions: 72 h
IMC-1 (IL-2 20 ng/mL) [22] = test: as above; conditions: 72 h
DERL-7 (IL-2 2.5 ng/mL) [23] = test: as above; conditions: 72 h
NK-92 (IL-2 2.5 ng/mL) [24] = test: as above; conditions: 72 h
[25] = system: normal primary NK cells, pool 3 (3 donors) (IL-2 2.5 ng/mL); test: as above; conditions: 72 h
NK-YS (IL-2 2.5 ng/mL) [26] = test: as above; conditions: 72 h
[27] = system: normal primary NK cells, pool 1 (3 donors) (IL-2 2.5 ng/mL); test: as above; conditions: 72 h
SNK-6 (IL-2 2.5 ng/mL) [28] = test: as above; conditions: 72 h

CN(C)Cc1ccc(S(=O)(=O)n2ccc(/C=C/C(=O)NO)c2)cc1 [Resminostat] (max concentration tested 10000 nM)
Conditions | drug sensitivity score
DERL-7 (IL-2 2.5 ng/mL) [23] | 11.5
IMC-1 (IL-2 20 ng/mL) [22] | 5.11
KAI3 (IL-2 2.5 ng/mL) [18] | 17.1
KHYG-1 (IL-2 2.5 ng/mL) [19] | 13.4
NK-92 (IL-2 2.5 ng/mL) [24] | 14.1
NK-YS (IL-2 2.5 ng/mL) [26] | 10.3
NKL (IL-2 2.5 ng/mL) [20] | 18.2
SNK-6 (IL-2 2.5 ng/mL) [28] | 12.3
YT (IL-2 2.5 ng/mL) [21] | 9.67
[1] | 10.6
[16] | 16.1
[17] | 10.2
[25] | 8.68
[27] | 13

percent inhibition of viability [%]
Conditions | 1 nM | 10 nM | 100 nM | 1000 nM | 10000 nM
DERL-7 (IL-2 2.5 ng/mL) [10] | 2.49 | 1.77 | -10 | 47.9 | 101
IMC-1 (IL-2 20 ng/mL) [9] | -6.01 | -4.89 | -2.77 | -7.01 | 101
KAI3 (IL-2 2.5 ng/mL) [5] | 1.92 | 3.59 | 28.4 | 71.5 | 104
KHYG-1 (IL-2 2.5 ng/mL) [6] | -5.72 | -0.43 | 1.19 | 68.5 | 106
NK-92 (IL-2 2.5 ng/mL) [11] | -4.22 | -5.89 | 2.76 | 72.4 | 104
NK-YS (IL-2 2.5 ng/mL) [13] | -6.67 | -3.77 | 2.32 | 34.2 | 103
NKL (IL-2 2.5 ng/mL) [7] | 10.2 | 0.52 | 26.1 | 80.8 | 106
SNK-6 (IL-2 2.5 ng/mL) [15] | 11.1 | 1.11 | 5.35 | 56.6 | 101
YT (IL-2 2.5 ng/mL) [8] | -1.93 | -2.18 | 2.96 | 27.7 | 105
[2] | -4.58 | -2.4 | -0.88 | 36.9 | 101
[3] | -6.63 | 11.2 | 20.3 | 73.7 | 89.4
[4] | -6.44 | 4.91 | 8.82 | 42 | 97.4
[12] | -1.68 | 4.21 | 3.8 | 20.1 | 98.5
[14] | 2.24 | 11.9 | 12.7 | 57.5 | 98.9

CS(=O)(=O)c1ccc(C2=C(c3ccccc3)C(=O)OC2)cc1 [Rofecoxib] (max concentration tested 10000 nM)
Conditions | drug sensitivity score
DERL-7 (IL-2 2.5 ng/mL) [23] | 0
IMC-1 (IL-2 20 ng/mL) [22] | 0
KAI3 (IL-2 2.5 ng/mL) [18] | 0
KHYG-1 (IL-2 2.5 ng/mL) [19] | 0
NK-92 (IL-2 2.5 ng/mL) [24] | 0
NK-YS (IL-2 2.5 ng/mL) [26] | 0
NKL (IL-2 2.5 ng/mL) [20] | 0
SNK-6 (IL-2 2.5 ng/mL) [28] | 0
YT (IL-2 2.5 ng/mL) [21] | 0
[1] | 0
[16] | 0
[17] | 0
[25] | 0
[27] | 0

percent inhibition of viability [%]
Conditions | 1 nM | 10 nM | 100 nM | 1000 nM | 10000 nM
DERL-7 (IL-2 2.5 ng/mL) [10] | 6.85 | -1.97 | -3.99 | 2.79 | 0.07
IMC-1 (IL-2 20 ng/mL) [9] | 2.54 | 0.06 | 3 | -1.23 | 3.31
KAI3 (IL-2 2.5 ng/mL) [5] | 8.75 | 4.53 | 5.34 | 3.57 | -3.77
KHYG-1 (IL-2 2.5 ng/mL) [6] | 0.01 | 1.72 | 2.69 | 2.11 | 2.37
NK-92 (IL-2 2.5 ng/mL) [11] | 11.4 | -0.5 | -4.39 | -1.55 | -5.21
NK-YS (IL-2 2.5 ng/mL) [13] | 3.55 | -3.6 | -2.98 | 3.34 | -0.78
NKL (IL-2 2.5 ng/mL) [7] | 11.4 | 9.36 | 8.93 | 4.19 | 9.11
SNK-6 (IL-2 2.5 ng/mL) [15] | 8.2 | 18.3 | 4.94 | 9.79 | 3.14
YT (IL-2 2.5 ng/mL) [8] | 5.17 | 5.42 | 4.83 | 4.08 | 6.74
[2] | 10.3 | 5.54 | 3.01 | 2.73 | 3.42
[3] | -13.7 | -25.3 | -34.2 | -6.69 | -25.9
[4] | -7.81 | 1.86 | -6.15 | -8.51 | -5.43
[12] | -7.45 | -5.99 | -3.42 | -7.23 | -12.4
[14] | -5.06 | -9.08 | -8.33 | 2.49 | 0.6
